From paper PMC7587962, “Evaluation of Cytotoxicity and α-Glucosidase Inhibitory Activity of Amide and Polyamino-Derivatives of Lupane Triterpenoids” (Molecules, 2020)

Legend:
SF-539 = experiment: NCI-60 SRB screen: CNS cancer SF-539; format: cell-based, human; settings: SF-539
SF-295 = experiment: NCI-60 SRB screen: CNS cancer SF-295; format: cell-based, human; settings: SF-295
A549/ATCC = experiment: NCI-60 SRB screen: non-small cell lung cancer A549/ATCC; format: cell-based, human; settings: A549/ATCC
HL-60(TB) = experiment: NCI-60 SRB screen: leukemia HL-60(TB); format: cell-based; settings: Homo sapiens, 48 h, HL-60(TB)
MCF7 = experiment: NCI-60 SRB screen: breast cancer MCF7; format: cell-based; settings: Homo sapiens, 48 h, MCF7
OVCAR-8 = experiment: NCI-60 SRB screen: ovarian cancer OVCAR-8; format: cell-based, human; settings: OVCAR-8
LOX IMVI = experiment: NCI-60 SRB screen: melanoma LOX IMVI; format: cell-based, human
RXF 393 = experiment: NCI-60 SRB screen: renal cancer RXF 393; format: cell-based, human; settings: RXF 393
NCI-H460 = experiment: NCI-60 SRB screen: non-small cell lung cancer NCI-H460; format: cell-based; settings: Homo sapiens, 48 h, NCI-H460
KM12 = experiment: NCI-60 SRB screen: colon cancer KM12; format: cell-based, human; settings: KM12
NSCL cancer subpanel = experiment: NCI-60 screen, subpanel NSCL cancer
COLO 205 = experiment: NCI-60 SRB screen: colon cancer COLO 205; format: cell-based, human; settings: COLO 205
SNB-19 = experiment: NCI-60 SRB screen: CNS cancer SNB-19; format: cell-based, human; settings: SNB-19
UO-31 = experiment: NCI-60 SRB screen: renal cancer UO-31; format: cell-based, human; settings: UO-31
UACC-257 = experiment: NCI-60 SRB screen: melanoma UACC-257; format: cell-based, human; settings: UACC-257
IGROV1 = experiment: NCI-60 SRB screen: ovarian cancer IGROV1; format: cell-based, human; settings: IGROV1
BT-549 = experiment: NCI-60 SRB screen: breast cancer BT-549; format: cell-based, human; settings: BT-549
CAKI-1 = experiment: NCI-60 SRB screen: renal cancer CAKI-1; format: cell-based, human; settings: CAKI-1
CNS cancer subpanel = experiment: NCI-60 screen, subpanel CNS cancer
[1] = tested on: 60 human tumor cell lines; settings: single dose 10 µM
TK-10 = experiment: NCI-60 SRB screen: renal cancer TK-10; format: cell-based, human; settings: TK-10
ACHN = experiment: NCI-60 SRB screen: renal cancer ACHN; format: cell-based, human
SK-OV-3 = experiment: NCI-60 SRB screen: ovarian cancer SK-OV-3; format: cell-based, human; settings: SK-OV-3
NCI-H322M = experiment: NCI-60 SRB screen: non-small cell lung cancer NCI-H322M; format: cell-based, human
SK-MEL-2 = experiment: NCI-60 SRB screen: melanoma SK-MEL-2; format: cell-based, human; settings: SK-MEL-2
Breast cancer subpanel = experiment: NCI-60 screen, subpanel Breast cancer
Renal Cancer subpanel = experiment: NCI-60 screen, subpanel Renal Cancer
Colon Cancer subpanel = experiment: NCI-60 screen, subpanel Colon Cancer
MALME-3M = experiment: NCI-60 SRB screen: melanoma MALME-3M; format: cell-based, human; settings: MALME-3M
HS 578T = experiment: NCI-60 SRB screen: breast cancer HS 578T; format: cell-based, human; settings: HS 578T
SF-268 = experiment: NCI-60 SRB screen: CNS cancer SF-268; format: cell-based, human; settings: SF-268
M14 = experiment: NCI-60 SRB screen: melanoma M14; format: cell-based, human; settings: M14
HT29 = experiment: NCI-60 SRB screen: colon cancer HT29; format: cell-based; settings: Homo sapiens, HT29
UACC-62 = experiment: NCI-60 SRB screen: melanoma UACC-62; format: cell-based, human; settings: UACC-62
SR = experiment: NCI-60 SRB screen: leukemia SR; format: cell-based; settings: Homo sapiens, 48 h
MDA-MB-468 = experiment: NCI-60 SRB screen: breast cancer MDA-MB-468; format: cell-based, human
HCT-15 = experiment: NCI-60 SRB screen: colon cancer HCT-15; format: cell-based, human; settings: HCT-15
[2] = Homo sapiens, five concentrations, 48 h, SRB, read-out: GI50
[3] = single dose 10 µM, read-out: Percentage Cell Growth
[4] = five concentrations, SRB, read-out: GI50

**Q.** C=C(C)[C@@H]1CC[C@]2(C(=O)OC)CC[C@]3(C)[C@H](CC[C@@H]4[C@@]5(C)CCC(=NOCCC(=NOCCC#N)NCCC#N)C(C)(C)[C@@H]5CC[C@]43C)[C@@H]12 [Compound 21] was tested. Which GI50 (SF-539; [2]) did it give?
**A.** 11 µM

**Q.** And the “Percentage Cell Growth” value (SF-539; single dose 10 µM)?
**A.** −2.29%

**Q.** What about the GI50 (SF-295; [2]) of the same compound?
**A.** 21.4 µM

**Q.** What about the “Percentage Cell Growth” value (SF-295; single dose 10 µM) of the same compound?
**A.** 36.56%

**Q.** What about the “Percentage Cell Growth” value (A549/ATCC; single dose 10 µM) of the same compound?
**A.** 15.82%

**Q.** What about the GI50 (A549/ATCC; [2]) of the same compound?
**A.** 5.27 µM

**Q.** What about the activity at 10 µM (HL-60(TB); [3]) of the same compound?
**A.** 0.9%

**Q.** And the GI50 (HL-60(TB); [4])?
**A.** 5.18 µM

**Q.** What about the activity at 10 µM (MCF7; [3]) of the same compound?
**A.** 12.4%

**Q.** And the GI50 (MCF7; [4])?
**A.** 3.67 µM

**Q.** What about the GI50 (OVCAR-8; [2]) of the same compound?
**A.** 9.66 µM

**Q.** And the “Percentage Cell Growth” value (OVCAR-8; single dose 10 µM)?
**A.** 13.17%

**Q.** What about the GI50 (LOX IMVI; [2]) of the same compound?
**A.** 4.32 µM

**Q.** And the “Percentage Cell Growth” value (LOX IMVI; single dose 10 µM)?
**A.** 14.56%

**Q.** And the GI50 (RXF 393; [2])?
**A.** 5.64 µM

**Q.** What about the “Percentage Cell Growth” value (RXF 393; single dose 10 µM) of the same compound?
**A.** −43.14%

**Q.** What about the activity at 10 µM (NCI-H460; [3]) of the same compound?
**A.** 4.23%

**Q.** What about the GI50 (NCI-H460; [4]) of the same compound?
**A.** 11.1 µM

**Q.** What about the GI50 (KM12; [2]) of the same compound?
**A.** 9.35 µM

**Q.** What about the “Percentage Cell Growth” value (KM12; single dose 10 µM) of the same compound?
**A.** 10.89%

**Q.** What about the “MID b, average sensitivity of all cell line of particular subpanel” value (from here on “MID b, average sensitivity”) (NSCL cancer subpanel) of the same compound?
**A.** 12.43 µM

**Q.** What about the “Selectivity, ratio MID a: MID b” value (NSCL cancer subpanel) of the same compound?
**A.** 0.83

**Q.** What about the “Percentage Cell Growth” value (COLO 205; single dose 10 µM) of the same compound?
**A.** 17.60%

**Q.** What about the GI50 (COLO 205; [2]) of the same compound?
**A.** 9.02 µM

**Q.** And the GI50 (SNB-19; [2])?
**A.** 12.6 µM

**Q.** What about the “Percentage Cell Growth” value (SNB-19; single dose 10 µM) of the same compound?
**A.** 28.93%

**Q.** What about the GI50 (UO-31; [2]) of the same compound?
**A.** 15.6 µM

**Q.** What about the “Percentage Cell Growth” value (UO-31; single dose 10 µM) of the same compound?
**A.** 19.03%

**Q.** And the GI50 (UACC-257; [2])?
**A.** 5.35 µM

**Q.** And the “Percentage Cell Growth” value (UACC-257; single dose 10 µM)?
**A.** 8.82%

**Q.** And the GI50 (IGROV1; Homo sapiens, IGROV-1, five concentrations, 48 h, SRB, read-out: GI50)?
**A.** 14.9 µM

**Q.** What about the “Percentage Cell Growth” value (IGROV1; single dose 10 µM) of the same compound?
**A.** 18.78%

**Q.** What about the “Percentage Cell Growth” value (BT-549; single dose 10 µM) of the same compound?
**A.** 4.40%

**Q.** And the GI50 (BT-549; [2])?
**A.** 11.3 µM

**Q.** What about the “Percentage Cell Growth” value (CAKI-1; single dose 10 µM) of the same compound?
**A.** 18.52%

**Q.** And the GI50 (CAKI-1; [2])?
**A.** 10.2 µM

**Q.** And the “MID b, average sensitivity” value (CNS cancer subpanel)?
**A.** 15.32 µM

**Q.** What about the “Selectivity, ratio MID a: MID b” value (CNS cancer subpanel) of the same compound?
**A.** 0.67

**Q.** And the “cancer cell lethality, range of percentage growth” value ([1]; cell lines with negative growth)?
**A.** −0.38% to −84.68%

**Q.** What about the “cases of cancer cell lethality” value ([1]; number of cell lines) of the same compound?
**A.** 11

**Q.** What about the GI50 (TK-10; [2]) of the same compound?
**A.** 13.8 µM

**Q.** What about the “Percentage Cell Growth” value (TK-10; single dose 10 µM) of the same compound?
**A.** 37.88%

**Q.** And the GI50 (ACHN; [2])?
**A.** 10.5 µM

**Q.** What about the “Percentage Cell Growth” value (ACHN; single dose 10 µM) of the same compound?
**A.** 13.94%

**Q.** What about the GI50 (SK-OV-3; [2]) of the same compound?
**A.** 10.8 µM

**Q.** And the “Percentage Cell Growth” value (SK-OV-3; single dose 10 µM)?
**A.** 34.60%

**Q.** What about the GI50 (NCI-H322M; [2]) of the same compound?
**A.** > 50 µM

**Q.** What about the “Percentage Cell Growth” value (NCI-H322M; single dose 10 µM) of the same compound?
**A.** 46.12%

**Q.** What about the GI50 (SK-MEL-2; [2]) of the same compound?
**A.** 13.8 µM

**Q.** What about the “Percentage Cell Growth” value (SK-MEL-2; single dose 10 µM) of the same compound?
**A.** 36.23%

**Q.** And the “MID b, average sensitivity” value (Breast cancer subpanel)?
**A.** 10.16 µM

**Q.** And the “Selectivity, ratio MID a: MID b” value (Breast cancer subpanel)?
**A.** 1.00

**Q.** And the “MID b, average sensitivity” value (Renal Cancer subpanel)?
**A.** 11.39 µM

**Q.** And the “Selectivity, ratio MID a: MID b” value (Renal Cancer subpanel)?
**A.** 0.89

**Q.** And the “MID b, average sensitivity” value (Colon Cancer subpanel)?
**A.** 7.42 µM

**Q.** And the “Selectivity, ratio MID a: MID b” value (Colon Cancer subpanel)?
**A.** 1.38

**Q.** And the GI50 (MALME-3M; [2])?
**A.** 11.8 µM

**Q.** What about the “Percentage Cell Growth” value (MALME-3M; single dose 10 µM) of the same compound?
**A.** 25.27%

**Q.** What about the “Percentage Cell Growth” value (HS 578T; single dose 10 µM) of the same compound?
**A.** 24.26%

**Q.** What about the GI50 (HS 578T; [2]) of the same compound?
**A.** 30.2 µM

**Q.** And the GI50 (SF-268; [2])?
**A.** 11.4 µM

**Q.** And the “Percentage Cell Growth” value (SF-268; single dose 10 µM)?
**A.** 29.14%

**Q.** What about the GI50 (M14; [2]) of the same compound?
**A.** 11.9 µM

**Q.** And the “Percentage Cell Growth” value (M14; single dose 10 µM)?
**A.** 26.57%

**Q.** And the activity at 10 µM (HT29; HT-29, 48 h, single dose 10 µM, read-out: Percentage Cell Growth)?
**A.** 3.88%

**Q.** What about the GI50 (HT29; HT-29, five concentrations, 48 h, SRB, read-out: GI50) of the same compound?
**A.** 6.7 µM

**Q.** What about the GI50 (UACC-62; [2]) of the same compound?
**A.** 2.32 µM

**Q.** What about the “Percentage Cell Growth” value (UACC-62; single dose 10 µM) of the same compound?
**A.** −25.76%

**Q.** What about the activity at 10 µM (SR; [3]) of the same compound?
**A.** 1.86%

**Q.** And the GI50 (SR; [4])?
**A.** 2.87 µM

**Q.** And the GI50 (MDA-MB-468; [2])?
**A.** 2.02 µM

**Q.** What about the “Percentage Cell Growth” value (MDA-MB-468; single dose 10 µM) of the same compound?
**A.** 4.41%

**Q.** And the “Percentage Cell Growth” value (HCT-15; single dose 10 µM)?
**A.** 34.28%

**Q.** What about the GI50 (HCT-15; [2]) of the same compound?
**A.** 5.77 µM
